Test results as given in patent US10123540B1, “Disinfectant material” (PEN Inc., priority 2014, dated 2018).

Columns and labels:
[1] = tested on: feline calcivirus ATCC VR-782; assay: Antiviral surface test, Modified ASTM E1053, limited to 10 minutes; settings: 20 mg/L in a water based solution applied to a surface; 10 minutes exposure; non-enveloped virus
Experimental: Copper ions (20 mg/L) in a water based solution were applied to a surface with the non-enveloped feline calcivirus ATCC VR-782. […] In our case we wanted to have an idea about the rate of killing and this is why we limited the test to 10 minutes.

Human Corona Virus 229E = settings: 10 minutes
[2] = tested on: H1N1 Influenza A, Strain A-California; assay: Towelette antiviral test, modified AATCC 100; settings: towelettes embedded with water based solution at 20 mg/L
Experimental: A number of other tests were performed against H1N1 Influenza A, Strain A-California, and Human Corona Virus 229E.

| Compound | reduction relative to the control [1] | percent reduction (Human Corona Virus 229E) | reduction vs time zero control [2] |
| --- | --- | --- | --- |
| [Cu+2] [Copper ions] | 82.22% | – | – |
| copper iodide | – | 99.99% | 99.7% |
